Assay results from patent US4977275A, “Pyrrole derivatives” (SS Pharmaceutical Co., Ltd., priority 1988, dated 1990).
≈ marks a conversion by molar mass, not a printed value.

Legend:
Format in all cases: cell-based
[1] = test system: Bacillus subtilis ATCC 6633; experiment: antimicrobial activity, minimum inhibitory concentration; conditions: ATCC6633
[2] = test system: Staphylococcus aureus FDA 209P; experiment: as above; conditions: FDA209P
[3] = test system: Candida albicans NHL 4019; experiment: as above; conditions: NHL4019
Candida albicans Yu-1200 = experiment: as above; conditions: YU1200
[4] = test system: Saccharomyces cerevisiae ATCC 9763; experiment: as above; conditions: ATCC9763
[5] = test system: Helminthosporium sesamum IAM 5012; experiment: as above; conditions: IAM5012
[6] = test system: Piricularia oryzae IAM 5016; experiment: microbe, parasite or virus in culture; conditions: read-out: Minimum inhibitory concentration (MIC)
[7] = test system: Debaryomyces kloeckeri IFO 0015; experiment: antimicrobial activity, minimum inhibitory concentration; conditions: IFO0015

| Structure (SMILES) | MIC [1] | MIC [2] | MIC [3] | MIC (Candida albicans Yu-1200) | MIC [4] | MIC [5] | MIC [6] | MIC [7] |
| --- | --- | --- | --- | --- | --- | --- | --- | --- |
| CCCCCCC(=O)Oc1ccc(F)cc1C(=O)c1[nH]c(Br)c(Br)c1Br [Compound 2, 2-(2-Heptanoyloxy-5-fluorobenzoyl)-3,4,5-tribromopyrrole] | < 0.2 µg/mL | < 0.2 µg/mL | 12.5 µg/mL (≈ 22.6 µM) | 12.5 µg/mL (≈ 22.6 µM) | 12.5 µg/mL (≈ 22.6 µM) | 6.25 µg/mL (≈ 11.3 µM) | < 0.2 µg/mL | 12.5 µg/mL (≈ 22.6 µM) |
| CCCCCCC(=O)Oc1ccccc1C(=O)c1[nH]c(Cl)c(Cl)c1I [Compound 6, 2-(2-heptanoyloxybenzoyl)-3-iodo-4,5-dichloropyrrole] | 0.39 µg/mL (≈ 0.789 µM) | 0.39 µg/mL (≈ 0.789 µM) | 12.5 µg/mL (≈ 25.3 µM) | 12.5 µg/mL (≈ 25.3 µM) | 12.5 µg/mL (≈ 25.3 µM) | 6.25 µg/mL (≈ 12.6 µM) | < 0.2 µg/mL | 12.5 µg/mL (≈ 25.3 µM) |
| O=C(CCCl)Oc1ccccc1C(=O)c1[nH]c(Cl)c(Cl)c1I [Compound 9, 2-[2-(3-Chloropropionyloxy)benzoyl]-3-iodo-4,5-dichloropyrrole] | < 0.2 µg/mL | < 0.2 µg/mL | 6.25 µg/mL (≈ 13.2 µM) | 6.25 µg/mL (≈ 13.2 µM) | 12.5 µg/mL (≈ 26.5 µM) | 6.25 µg/mL (≈ 13.2 µM) | < 0.2 µg/mL | 12.5 µg/mL (≈ 26.5 µM) |
